The record followed here is ChEMBL document CHEMBL5252649, “CRBN ligand expansion for hematopoietic prostaglandin D2 synthase (H-PGDS) targeting PROTAC design and their in vitro ADME profiles” (Bioorg Med Chem, 2023).

What is called DC50 is the concentration at which degradation of the target reaches its halfway point. In general, Papp refers to the rate of passage across a membrane or cell layer, normalised by area and donor concentration. A word on the logD: it is lipophilicity at a set pH, counting ionised and neutral species. A lower logD goes with lower lipophilicity. A word on the solubility: it is how much of the substance goes into solution per volume. A lower solubility goes with little dissolved substance.

Series [1] is described as follows: Metabolic stability of the compound in human liver microsomes incubated for 60 mins in presence of NADPH by UPLC/MS/MS analysis. Type of series: ADME, Microsome. Particulars: read-out: Stability. Background: Microsomes from liver hold many membrane-bound enzymes, among them those of drug oxidation.
Series [2] is described as follows: Metabolic stability of the compound in human liver microsomes incubated for 10 mins in presence of NADPH by UPLC/MS/MS analysis. Particulars: read-out: Stability. Type of series: ADME, Microsome.
Series [3] addresses Protein cereblon/Hematopoietic prostaglandin D synthase (Homo sapiens, UniProt O60760+Q96SW2). Description: PROTAC activity at CRBN/H-PGDS in human KU812 cells assessed as induction of H-PGDS degradation by measuring decrease in H-PGDS protein expression incubated for 24 hrs by western blot analysis. Type of series: cell-based. Particulars: for DC50: ku812 cell line; for Activity: KU812 cell line.

Series [4] is described as follows: Apparent permeability coefficient, Papp of the compound at pH 7.4 incubated for 4 hrs by UPLC/MS/MS analysis. Type of series: ADME. Particulars: for Papp at 4 h: not told, pH 7.4.
Series [5] is described as follows: Lipophilicity, logD of the compound by UPLC analysis. Type of series: physicochemical. As to conditions: octanol/water.
Series [6] in a line: Solubility of the compound in PBS buffer at 100 uM at pH 7.4 by UPLC/MS/MS analysis. Type of series: physicochemical.

Structures are written as SMILES. In brackets after ≈: the same amount, converted by molar mass.

Take `O=C1CCC(N2C(=O)c3cccc(N4CCN(C(=O)C5CCN(c6ccc(NC(=O)c7cnc(Oc8ccccc8)nc7)cc6)CC5)CC4)c3C2=O)C(=O)N1` (stereo not drawn): the remaining at 1 h in series [1] stood at 75%. In series [2], the remaining at 10 min worked out at 89%. Also, the DC50 in series [3] is 36 pM. Besides, in series [4], the Papp at 4 h was 0.07 ×10⁻⁶ cm/s. The logD in series [5] turned out to be 3.39. The solubility at 100 µM in series [6] is 1.12 µM (≈ 0.832 µg/mL).

As for `O=C1CCC(N2C(=O)c3ccc(N4CCN(C(=O)C5CCN(c6ccc(NC(=O)c7cnc(Oc8ccccc8)nc7)cc6)CC5)CC4)cc3C2=O)C(=O)N1` (stereo not drawn), the remaining at 1 h in series [1] was 80%. For the same compound, the remaining at 10 min in series [2] was 93%. The DC50 in series [3] came out at 175 pM. The Papp at 4 h in series [4] stood at 0.049 ×10⁻⁶ cm/s. Moreover, the logD in series [5] is 3.33. For the same compound, in series [6], the solubility at 100 µM is below 0.5 µM.

Regarding `O=C(Nc1ccc(N2CCC(C(=O)N3CCOCC3)CC2)cc1)c1cnc(Oc2ccccc2)nc1`, in series [1], the remaining at 1 h came out at 80%. Moreover, in series [2], the remaining at 10 min is 96%. Also, the Papp at 4 h in series [4] came out at 3.01 ×10⁻⁶ cm/s. Besides, the logD in series [5] came to 3.06. Besides, in series [6], the solubility at 100 µM was 3.17 µM (≈ 1.55 µg/mL).

As for `Cn1cccc1C(=O)N1CCN(C(=O)Nc2ccc(N3CCC(C(=O)N4CCN(c5cccc6c5C(=O)N(C5CCC(=O)NC5=O)C6=O)CC4)CC3)cc2)CC1` (stereo not drawn), the remaining at 1 h in series [1] came out at 79%. In addition, in series [2], the remaining at 10 min turned out to be 93%. Also, in series [3], the DC50 was determined as 20 pM. The Papp in series [4] (pH 7.4, 4 h) amounted to 0.0007 ×10⁻⁶ cm/s. In series [5], this compound yielded a log distribution coefficient (logD) of 2.79. In series [6], this compound yielded a solubility at 100 µM of 37.4 µM (≈ 28.6 µg/mL).

For `O=C1CCC(N2C(=O)c3cc(F)c(N4CCN(C(=O)C5CCN(c6ccc(NC(=O)c7cnc(Oc8ccccc8)nc7)cc6)CC5)CC4)cc3C2=O)C(=O)N1` (stereo not drawn), in series [1], the remaining at 1 h is 69%. Moreover, the remaining at 10 min in series [2] came out at 93%. In addition, in series [3], the Activity entry is “Dose-Dependent Effect” and the DC50 was 147 pM. For the same compound, in series [4], the Papp at 4 h worked out at 0.007 ×10⁻⁶ cm/s. In series [5], the logD turned out to be 3.5. For the same compound, the solubility at 100 µM in series [6] is below 0.5 µM.

For the compound `O=C1CCC(c2ccc(NCC(=O)N3CCN(C(=O)C4CCN(c5ccc(NC(=O)c6cnc(Oc7ccccc7)nc6)cc5)CC4)CC3)cc2)C(=O)N1` (stereo not drawn), in series [1], the remaining at 1 h was 78%. Besides, the remaining at 10 min in series [2] turned out to be 89%. In series [3], the Activity entry is “Dose-Dependent Effect” and the DC50 was found to be 104 pM. Also, in series [4], the Papp at 4 h came out at 0.2 ×10⁻⁶ cm/s. Moreover, in series [5], the logD worked out at 3. This compound came in with a solubility at 100 µM in series [6] of 7 µM (≈ 5.12 µg/mL).

For the compound `Cn1cccc1C(=O)N1CCN(C(=O)Nc2ccc(N3CCC(C(=O)N4CCN(c5ccc6c(c5)C(=O)N(C5CCC(=O)NC5=O)C6=O)CC4)CC3)cc2)CC1` (stereo not drawn), the remaining at 1 h in series [1] was 72%. For the same compound, the remaining at 10 min in series [2] worked out at 90%. The DC50 in series [3] amounted to 20 pM. In series [4], the Papp at 4 h is 0.009 ×10⁻⁶ cm/s. This compound also gave a logD in series [5] of 2.65. The amount in solution in series [6] (solubility at 100 µM) came to 2.91 µM (≈ 2.22 µg/mL).

For `Cn1cccc1C(=O)N1CCN(C(=O)Nc2ccc(N3CCC(C(=O)N4CCOCC4)CC3)cc2)CC1`, in series [1], the remaining at 1 h came to 83%. In series [2], the remaining at 10 min turned out to be 92%. Further, the Papp at 4 h in series [4] was 0.21 ×10⁻⁶ cm/s. Besides, in series [5], the logD was 2.25. This compound also registered a solubility at 100 µM in series [6] of at least 95 µM.
